Data: paper PMC7933434, “Entropy-driven binding of gut bacterial β-glucuronidase inhibitors ameliorates irinotecan-induced toxicity” (Communications Biology, 2021)
“And” between values parts separate entries of the source, which are not always exact repeats. Equal entries are not always repeated. “Also recorded” adds a separate entry of the source.

What was measured:
BALB/c mice [1] = assay: Colon histology (hematoxylin and eosin) after oral gavage; type: in vivo, mouse; settings: female BALB/c mice; oral gavage for 5 days; 3 at 37.5 mg per kg body weight, ASN03273363 at 65 mg
HsGUS (human GUS) = molecular target: T1, HsGUS (human GUS) (Homo sapiens, UniProt P08236); assay: GUS inhibition assay, hydrolysis of 4-methylumbelliferyl-β-glucuronide, HsGUS; type: biochemical; settings: HsGUS; at 1 mM; read-out: percentage of inhibition
T1 construct: HsGUS was prepared as described[37]; made in house
T1 sequence (P08236 23-651): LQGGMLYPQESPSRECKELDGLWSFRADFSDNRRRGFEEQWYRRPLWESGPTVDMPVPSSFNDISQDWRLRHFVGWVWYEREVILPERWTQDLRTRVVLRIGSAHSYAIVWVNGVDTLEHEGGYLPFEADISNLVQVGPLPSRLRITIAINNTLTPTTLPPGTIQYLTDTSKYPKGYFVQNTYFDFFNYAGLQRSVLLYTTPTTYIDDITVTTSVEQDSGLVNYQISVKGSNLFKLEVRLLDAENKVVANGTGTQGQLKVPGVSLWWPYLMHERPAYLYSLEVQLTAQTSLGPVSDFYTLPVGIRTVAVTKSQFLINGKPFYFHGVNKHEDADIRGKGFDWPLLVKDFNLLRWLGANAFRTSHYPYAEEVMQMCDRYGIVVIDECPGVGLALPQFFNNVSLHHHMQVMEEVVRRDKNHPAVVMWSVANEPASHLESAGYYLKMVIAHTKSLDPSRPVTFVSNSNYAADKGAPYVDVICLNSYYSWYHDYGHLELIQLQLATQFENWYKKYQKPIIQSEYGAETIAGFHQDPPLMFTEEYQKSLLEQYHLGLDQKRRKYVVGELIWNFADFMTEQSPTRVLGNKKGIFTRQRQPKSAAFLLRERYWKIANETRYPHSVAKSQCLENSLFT

[2] = molecular target: EcGUS (Escherichia coli GUS) (Escherichia coli, UniProt P05804); assay: biochemical
EcGUS (Escherichia coli GUS), sequence (P05804 whole entry, the tested form may be a part): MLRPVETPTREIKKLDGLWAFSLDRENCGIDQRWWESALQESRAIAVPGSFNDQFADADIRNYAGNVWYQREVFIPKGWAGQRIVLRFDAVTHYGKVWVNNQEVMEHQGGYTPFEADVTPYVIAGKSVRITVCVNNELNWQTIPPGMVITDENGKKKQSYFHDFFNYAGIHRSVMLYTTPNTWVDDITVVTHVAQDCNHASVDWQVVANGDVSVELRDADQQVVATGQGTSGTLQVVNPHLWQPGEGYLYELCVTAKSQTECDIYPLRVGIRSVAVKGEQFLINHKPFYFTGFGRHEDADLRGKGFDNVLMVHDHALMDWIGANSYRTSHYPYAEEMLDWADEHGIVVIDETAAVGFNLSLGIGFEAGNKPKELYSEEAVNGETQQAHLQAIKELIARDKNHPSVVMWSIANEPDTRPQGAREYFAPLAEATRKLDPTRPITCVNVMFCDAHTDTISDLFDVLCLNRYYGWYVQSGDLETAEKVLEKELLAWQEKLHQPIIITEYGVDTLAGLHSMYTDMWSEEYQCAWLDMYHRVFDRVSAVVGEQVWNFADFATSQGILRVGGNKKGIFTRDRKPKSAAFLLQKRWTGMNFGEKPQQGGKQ

BALB/c mice [3] = assay: In vivo diarrhea test (CPT-11); set-up: species or system mouse; key to Diarrhea Score: 0: Normal stool; 1: Slight perianal staining of the coat; 2: Moderate perianal staining of the coat; 3: Watery mucosal-infused stool with severe perianal staining of the coat; Death
patients = patients taking irinotecan; cited from earlier work
[4] = Day 6, individual mice (Box 1-8)
[5] = Day 7, individual mice (Box 1-8)
[6] = Day 8, individual mice (Box 1-8)
[7] = Day 9, individual mice (Box 1-8)
[8] = Day 10, individual mice (Box 1-8)
[9] = Day 11, individual mice (Box 1-8)
[10] = Day 12, individual mice (Box 1-8)

| Compound | inhibition at 1000 µM (HsGUS (human GUS)) [%] | IC50 [2] [µM] | Diarrhea Score, mean (BALB/c mice [3]; Day 6, group mean) | Diarrhea Score (BALB/c mice [3]; [4]) | Diarrhea Score, mean (BALB/c mice [3]; Day 7, group mean) | Diarrhea Score (BALB/c mice [3]; [5]) | Diarrhea Score, mean (BALB/c mice [3]; Day 8, group mean) | Diarrhea Score (BALB/c mice [3]; [6]) | Diarrhea Score, mean (BALB/c mice [3]; Day 9, group mean) | Diarrhea Score (BALB/c mice [3]; [7]) | Diarrhea Score, mean (BALB/c mice [3]; Day 10, group mean) | Diarrhea Score (BALB/c mice [3]; [8]) | Diarrhea Score, mean (BALB/c mice [3]; Day 11, group mean) | Diarrhea Score (BALB/c mice [3]; [9]) | Diarrhea Score, mean (BALB/c mice [3]; Day 12, group mean) | Diarrhea Score (BALB/c mice [3]; [10]) | further results |
| --- | --- | --- | --- | --- | --- | --- | --- | --- | --- | --- | --- | --- | --- | --- | --- | --- | --- |
| CCOc1ccc(NC(=S)N(CCO)Cc2cc3cc(C)cc(C)c3[nH]c2=O)cc1 [ASN03273363, reference compound] |  |  |  |  |  |  |  |  |  |  |  |  |  |  |  |  | health of the epithelial layer and intestinal glandular structure (hematoxylin and eosin staining) (BALB/c mice [1]): neither compound affected the health of the epithelial layer or the intestinal glandular structure |
| CCCCCCCCC[C@@H]1NC[C@@H](O)[C@H](O)[C@H]1CO [Compound 13] | -0.5 | 3.6 |  |  |  |  |  |  |  |  |  |  |  |  |  |  |  |
| CCCCCC[C@@H]1NC[C@@H](O)[C@H](O)[C@H]1C(=O)O [Inhibior 3] |  |  | 0.0 | 0 | 0.0 | 0 | 0.0 | 0 | 0.0 | 0 | 0.0 | 0 | 0.0 | 0 | 0.0 | 0 |  |
| CCCCCC[C@@H]1NC[C@@H](O)[C@H](O)[C@H]1CO [Compound 12] | 0.6 | 24.9 |  |  |  |  |  |  |  |  |  |  |  |  |  |  |  |
| CCC[C@@H]1NC[C@@H](O)[C@H](O)[C@H]1CO [Compound 11] | 4.5 | 272 |  |  |  |  |  |  |  |  |  |  |  |  |  |  |  |
| CCc1c2c(nc3ccc(OC(=O)N4CCC(N5CCCCC5)CC4)cc13)-c1cc3c(c(=O)n1C2)COC(=O)[C@]3(O)CC [CPT-11, Irinotecan] |  |  | 0.0 | 0 | 0.0 | 0 | 0.25 | 0 and 2 | 0.429 | 0 and D and 3 | 1.6 | 0 and D and 3 and 2 | 2.3 | 1 and D and 3 and 2 | 2.1 | 3 and 0 and D | diarrhea (BALB/c mice [3]; BALB/c mice, CPT-11 only, 30 mg per kg daily, 10 days): developed diarrhea on day 7, until they reached a peak on day 11; also recorded: severe diarrhea from days 7–11; Mean ± SEM of Diarrhea score (BALB/c mice [3]; day 9, Welch's unpaired t-test table): 0.0 ± 0.0 N=7; Mean ± SEM of Diarrhea score (BALB/c mice [3]; day 10, Welch's unpaired t-test table): 0.0 ± 0.0 N=7; Mean ± SEM of Diarrhea score (BALB/c mice [3]; day 11, Welch's unpaired t-test table): 0.2857 ± 0.1844 N=7; Mean ± SEM of Diarrhea score (BALB/c mice [3]; day 12, Welch's unpaired t-test table): 0.3333 ± 0.2108 N=6; patients at high risk of death owing to neutropenia (patients): ~ 3.5%; patients becoming dehydrated (patients): ~ 10%; patients suffering from severe delayed diarrhea (patients): 87% |
